The text below walks through data of patent US12150995B2, “IRAK degraders and uses thereof” (Kymera Therapeutics, Inc., priority 2020, dated 2024).

In the test the target is T1, IRAK4 (Homo sapiens, UniProt Q9NWZ3).
T1 construct: endogenous in cells; host or cells: OCI-LY10
T1 sequence (Q9NWZ3 1-460): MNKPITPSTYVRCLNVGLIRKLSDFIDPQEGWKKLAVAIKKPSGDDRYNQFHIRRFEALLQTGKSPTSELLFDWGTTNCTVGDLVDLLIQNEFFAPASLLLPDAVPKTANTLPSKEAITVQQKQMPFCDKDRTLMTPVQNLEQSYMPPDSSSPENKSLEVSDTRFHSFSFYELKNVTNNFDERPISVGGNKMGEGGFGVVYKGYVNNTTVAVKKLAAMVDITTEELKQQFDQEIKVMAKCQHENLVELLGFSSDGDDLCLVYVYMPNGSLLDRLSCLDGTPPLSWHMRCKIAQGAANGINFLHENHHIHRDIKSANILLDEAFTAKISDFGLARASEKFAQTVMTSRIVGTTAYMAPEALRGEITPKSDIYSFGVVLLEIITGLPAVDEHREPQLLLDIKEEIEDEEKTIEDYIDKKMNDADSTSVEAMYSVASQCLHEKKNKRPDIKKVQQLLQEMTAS
As to the kind of experiment: IRAK4 MSD Degradation in OCI-LY10. Format: cell-based. The conditions noted are these: OCI-LY10 cells, Meso Scale Discovery, incubated 4 to 24 hours. A digest of the protocol: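 IRAK4 degradation was quantified by Meso Scale electrochemiluminescence (anti-IRAK4 capture and detection antibodies) in lysates of treated OCI-LY10 cells. Compounds were dosed at 8 concentrations (1:3 dilutions, top 1 to 10 μM) for 4 to 24 h; DC50 derived by three-parameter logistic fitting.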

Regarding `COc1cc2nn([C@H]3CC[C@H](CN(C)C4CCN(c5cc(Cl)cc6c5n(C)c(=O)n6C5CCC(=O)NC5=O)CC4)CC3)cc2cc1NC(=O)c1cccc(C(F)(F)F)n1` (some centres unmarked) [I-54], the DC50 – broadly, the midpoint of the concentration-degradation curve – was below 10 nM.

In turn, `COc1cc2nn([C@H]3CC[C@H](CN4CCC(c5cccc6c(N7CCC(=O)NC7=O)cncc56)CC4)CC3)cc2cc1NC(=O)c1cccc(C(F)(F)F)n1` [I-97] registered a DC50 below 10 nM.

`COc1cc2nc([C@H]3CC[C@H](CN(C)CCCNc4cccc5c4C(=O)N(C4CCC(=O)NC4=O)C5=O)CC3)sc2cc1NC(=O)c1cncc(Cl)c1` (some centres unmarked) [I-483] gave a DC50 above 200 nM.

Compound `Cn1c(=O)n(C2CCC(=O)NC2=O)c2cccc(N3C[C@@H]4C[C@H]3CN4C[C@H]3CC[C@H](n4cc5cc(NC(=O)c6cccc(C(F)(F)F)n6)c(C(C)(C)O)cc5n4)CC3)c21` (some centres unmarked) [I-225] showed a 50% degradation concentration (DC50) below 10 nM.

In turn, `C[C@H]1CN(c2cccc3c2n(C)c(=O)n3C2CCC(=O)NC2=O)CCN1C[C@H]1CC[C@H](n2cc3cc(NC(=O)c4cccc(C(F)(F)F)n4)ccc3n2)CC1` (some centres unmarked) [I-248] had a DC50 below 10 nM.

Turning to `COc1cc2nc([C@H]3CC[C@H](CN(C)CCCCNc4cccc5c4C(=O)N(C4CCC(=O)NC4=O)C5=O)CC3)sc2cc1NC(=O)c1cccc(C)n1` (some centres unmarked) [I-437], the half-maximal degradation concentration (DC50) lay within 10 to 50 nM.

Turning to `Cc1nc(C(=O)Nc2cc3cn([C@H]4CC[C@H](CN5CCC(c6cccc7c6n(C)c(=O)n7C6CCC(=O)N(C)C6=O)CC5)CC4)nc3cc2C(C)(C)O)co1` (some centres unmarked) [I-60], the DC50 was above 200 nM.

`Cn1c(=O)n(C2CCC(=O)NC2=O)c2cccc(C3CCN(C[C@H]4CC[C@H](n5cc6cc(NC(=O)c7cccc(C(F)(F)F)n7)c(C(F)(F)F)cc6n5)CC4)CC3)c21` (some centres unmarked) [I-76] came in with a 50% degradation concentration (DC50) of 10 to 50 nM.

In turn, `CC(C)Nc1cc(-n2ccc3cc(C#N)cnc32)ncc1C(=O)N[C@H]1CC[C@H](CN2CCC(c3ccc4c(N5CCC(=O)NC5=O)cncc4c3)CC2)CC1` [I-127] displayed a half-maximal degradation concentration (DC50) of 10 to 50 nM.

`Cn1c(=O)n(C2CCC(=O)NC2=O)c2cccc(C3CCN(C[C@H]4CC[C@H](n5cc6cc(NC(=O)c7cccc(C(F)(F)F)n7)c(N7C[C@H]8C[C@@H]7CO8)cc6n5)CC4)CC3)c21` (some centres unmarked) [I-44]: the half-maximal degradation concentration (DC50) is below 10 nM.

`CC(C)(O)c1cc2nc([C@H]3CC[C@H](C(=O)N4CCC(CCNc5cccc6c5C(=O)N(C5CCC(=O)NC5=O)C6=O)CC4)CC3)sc2cc1NC(=O)c1cccc(C(F)(F)F)n1` (some centres unmarked) [I-491] registered a DC50 of 50 to 100 nM.

In the case of `CC(C)Nc1cc(-n2ccc3cc(C#N)cnc32)ncc1-c1cn([C@H]2CC[C@H](CN3CCC(c4cccc5c4n(C)c(=O)n5C4CCC(=O)NC4=O)CC3)CC2)nn1` (some centres unmarked) [I-159], the 50% degradation concentration (DC50) was below 10 nM.

`COc1cc2nn([C@H]3CC[C@H](CN4CCN(C[C@H]5C[C@H](c6cccc7c(N8CCC(=O)NC8=O)cncc76)C5)CC4)CC3)cc2cc1NC(=O)c1cccc(C(F)(F)F)n1` [I-285] displayed a DC50 below 10 nM.

For `CC(C)Nc1cc(-n2ccc3cc(C#N)cnc32)ncc1C(=O)NC[C@H]1CC[C@H](CN(C)C2CCN(c3cccc4c3n(C)c(=O)n4C3CCC(=O)NC3=O)CC2)CC1` (some centres unmarked) [I-84], the DC50 fell in the range of 50 to 100 nM.

`CC(C)(O)c1cc2nc([C@H]3CC[C@H](CN4CC5(CC(CCNc6cccc7c6C(=O)N(C6CCC(=O)NC6=O)C7=O)C5)C4)CC3)sc2cc1NC(=O)c1cncc(F)c1` (some centres unmarked) [I-478] yielded a 50% degradation concentration (DC50) of 10 to 50 nM.

In turn, `COc1cc2nn([C@H]3CC[C@H](CN4CCC5(CC4)CC(CCNc4cccc6c4C(=O)N(C4CCC(=O)NC4=O)C6=O)C5)CC3)cc2cc1NC(=O)c1cccc(C(F)(F)F)n1` (some centres unmarked) [I-9] registered a DC50 of 50 to 100 nM.

Regarding `COc1ccc2c(c1N1CCN(C[C@H]3CC[C@H](n4cc(-c5cnc(-n6ccc7cc(C#N)cnc76)cc5NC(C)C)nn4)CC3)CC1)n(C)c(=O)n2C1CCC(=O)NC1=O` (some centres unmarked) [I-295], the DC50 fell in the range of 10 to 50 nM.

For the compound `COc1cc2nn([C@H]3CC[C@H](CN(C)[C@H]4CC[C@@H](c5cccc6c5n(C)c(=O)n6C5CCC(=O)NC5=O)CC4)CC3)cc2cc1NC(=O)c1cccc(C(F)(F)F)n1` (some centres unmarked) [I-6, N-[2-[4-[[[4-[1-(2,6-dioxo-3-piperidyl)-3-methyl-2-oxo-benzimidazol-4-yl]cyclohexyl]-methyl-amino]methyl]cyclohexyl]-6-methoxy-indazol-5-yl]-6-(trifluoromethyl)pyridine-2-carboxamide], the 50% degradation concentration (DC50) was below 10 nM.

`CC(C)Nc1c(C(=O)N[C@H]2CC[C@H](CN3CCC(c4cccc5c4n(C)c(=O)n5C4CCC(=O)NC4=O)CC3)CC2)cnc2sc(-c3cncs3)cc12` (some centres unmarked) [I-417] came in with a DC50 below 10 nM.

Compound `COc1ccc2c(c1C1CCN(C[C@H]3C[C@H](n4cc5cc(NC(=O)c6cccc(C(F)(F)F)n6)c(Cl)cc5n4)C3)CC1)n(C)c(=O)n2C1CCC(=O)NC1=O` (some centres unmarked) [I-145] registered a DC50 of 10 to 50 nM.

In turn, `COc1cc2nc([C@H]3CC[C@H](CN(C)CCCCNc4cccc5c4C(=O)N(C4CCC(=O)NC4=O)C5=O)CC3)sc2cc1NC(=O)c1cccc(C#N)n1` (some centres unmarked) [I-433] gave a DC50 of 10 to 50 nM.

For the compound `COc1cc2nn([C@H]3CC[C@H](CN4CCC(c5ccc6c(N7CCC(=O)NC7=O)cncc6c5)CC4)CC3)cc2cc1NC(=O)c1cncc(C#N)c1` [I-122], the DC50 lay in the range of 100 to 200 nM.

Regarding `COc1cc2nn([C@H]3CC[C@H](CN4CCC(O[C@H]5C[C@H](c6cccc7c6n(C)c(=O)n7C6CCC(=O)NC6=O)C5)CC4)CC3)cc2cc1NC(=O)c1cccc(C(F)(F)F)n1` (some centres unmarked) [I-386], the DC50 was 10 to 50 nM.

Take `CN(Cc1ccc(-n2cc3cc(NC(=O)c4cccc(C(F)(F)F)n4)c(C(C)(C)O)cc3n2)cc1)[C@H]1CC[C@H](Nc2cccc3c2C(=O)N(C2CCC(=O)NC2=O)C3=O)CC1` (some centres unmarked) [I-463]: the DC50 fell in the range of 10 to 50 nM.

Compound `COc1cc2nn([C@H]3CC[C@H](CN4CCCN(c5cccc6c5n(C)c(=O)n6C5CCC(=O)NC5=O)CC4)CC3)cc2cc1NC(=O)c1cccc(C(F)(F)F)n1` (some centres unmarked) [I-255] gave a DC50 below 10 nM.

`Cn1c(=O)n(C2CCC(=O)NC2=O)c2cccc(N3CCN(C[C@H]4CC[C@H](n5cc6cc(NC(=O)c7cccc(C(F)(F)F)n7)c(N7CCC7)cc6n5)CC4)CC3)c21` (some centres unmarked) [I-387] came in with a DC50 of 10 to 50 nM.

`Cn1c(=O)n(C2CCC(=O)NC2=O)c2ccc(F)c(C3CCN(C[C@H]4C[C@H](n5cc6cc(NC(=O)c7cccc(C(F)(F)F)n7)ccc6n5)C4)CC3)c21` (some centres unmarked) [I-151]: the 50% degradation concentration (DC50) is below 10 nM.

In turn, `CC(C)Nc1cc(-c2ccc3cc(C#N)cnn23)ncc1C(=O)N[C@H]1CC[C@H](CN2CCC(c3cccc4c3n(C)c(=O)n4C3CCC(=O)NC3=O)CC2)CC1` (some centres unmarked) [I-183] had a 50% degradation concentration (DC50) below 10 nM.

Compound `Cn1c(=O)n(C2CCC(=O)NC2=O)c2cccc(N3CCN(C[C@H]4CC[C@H](n5cc6cc(NC(=O)c7cccc(C(F)(F)F)n7)c(C7CC7)cc6n5)CC4)CC3)c21` (some centres unmarked) [I-296] displayed a half-maximal degradation concentration (DC50) of 10 to 50 nM.

Compound `CC(C)(O)c1cc2nc([C@H]3CC[C@H](C(=O)N4CCC5(CC4)CC(CCNc4cccc6c4C(=O)N(C4CCC(=O)NC4=O)C6=O)C5)CC3)sc2cc1NC(=O)c1cccc(C(F)(F)F)n1` (some centres unmarked) [I-486] came in with a 50% degradation concentration (DC50) of 100 to 200 nM.

`Cc1cc2nn([C@H]3CC[C@H](CN4CCN(c5cccc6c5n(C)c(=O)n6C5CCC(=O)NC5=O)C[C@@H]4C)CC3)cc2cc1NC(=O)c1cccc(C(F)(F)F)n1` (some centres unmarked) [I-301]: the half-maximal degradation concentration (DC50) was below 10 nM.

`Cc1ccc2c(c1C1CCN(C[C@H]3CC[C@H](n4cc5cc(NC(=O)c6cccc(C(F)(F)F)n6)ncc5n4)CC3)CC1)n(C)c(=O)n2C1CCC(=O)N(C)C1=O` (some centres unmarked) [I-162] yielded a half-maximal degradation concentration (DC50) above 200 nM.

For the compound `CC(C)Nc1cc(-n2ccc3cc(C#N)cnc32)ncc1-c1cn([C@H]2CC[C@H](CN3CCC(c4cccc5c(N6CCC(=O)NC6=O)cncc45)CC3)CC2)nn1` [I-329], the DC50 is below 10 nM.

In the case of `COc1cc2nn([C@H]3CC[C@H](CN4CC[C@@H](c5cccc6c5n(C)c(=O)n6C5CCC(=O)NC5=O)C4)CC3)cc2cc1NC(=O)c1cccc(C(F)(F)F)n1` (some centres unmarked) [I-428], the half-maximal degradation concentration (DC50) is below 10 nM.

`COc1cc2nn(C3CCN(C[C@H]4CC[C@H](c5cccc6c5n(C)c(=O)n6C5CCC(=O)NC5=O)CC4)CC3)cc2cc1NC(=O)c1cccc(C(F)(F)F)n1` (some centres unmarked) [I-237] yielded a half-maximal degradation concentration (DC50) of 10 to 50 nM.

In the case of `Cc1cc2nn([C@H]3CC[C@H](CN4CC5CC(C4)N5c4cccc5c4n(C)c(=O)n5C4CCC(=O)NC4=O)CC3)cc2cc1NC(=O)c1cccc(C(F)(F)F)n1` (some centres unmarked) [I-414], the DC50 lay within 10 to 50 nM.

Consider `CN(CCn1cc2cc(NC(=O)c3cnn4cccnc34)c(F)cc2n1)C1CCN(c2cccc3c2n(C)c(=O)n3C2CCC(=O)NC2=O)CC1` (centres unmarked) [I-22, N-[2-[2-[[1-[1-(2,6-dioxo-3-piperidyl)-3-methyl-2-oxo-benzimidazol-4-yl]-4-piperidyl]-methyl-amino]ethyl]-6-fluoro-indazol-5-yl]pyrazolo[1,5-a] pyrimidine-3-carboxamide], for which the DC50 is above 200 nM.

`O=C1CCN(c2cncc3c(N4CCN(C[C@H]5CC[C@H](n6cc7cc(NC(=O)c8cccc(C(F)(F)F)n8)c(C(F)F)cc7n6)CC5)CC4)cccc23)C(=O)N1` [I-371] returned a half-maximal degradation concentration (DC50) below 10 nM.

As to `CC(C)Nc1cc(-n2ccc3cc(C#N)cnc32)ncc1C(=O)N[C@H]1CC[C@H](CN2CCN(c3cccc4c3n(C)c(=O)n4C3CCC(=O)NC3=O)CC2)CC1` (some centres unmarked) [I-361], the half-maximal degradation concentration (DC50) was below 10 nM.

Turning to `COc1cc2nn([C@H]3CC[C@H](CN(C)C4CCN(c5cc(C)cc6c5n(C)c(=O)n6C5CCC(=O)NC5=O)CC4)CC3)cc2cc1NC(=O)c1cccc(C(F)(F)F)n1` (some centres unmarked) [I-56], the half-maximal degradation concentration (DC50) lay within 10 to 50 nM.

For the compound `COc1cc2nn([C@H]3CC[C@H](CN(C)C4CCN(c5cccc6c5n(C)c(=O)n6C5CCC(=O)NC5=O)CC4)CC3)cc2cc1NC(=O)c1cncc(C(F)(F)F)c1` (some centres unmarked) [I-92], the DC50 is below 10 nM.
